Values of other authors as cited in patent publication US8143269B2, “Inhibitors of store operated calcium release” (Calcimedica, Inc., priority 2008, dated 2012).

Assays:
[1] = target: STIM1 and Orai1 in human embryonic kidney 293 cells (HEK293 cells) (Homo sapiens, UniProt Q96D31); conditions: HEK293 cells coexpressing STIM1 and Orai1
Chain of STIM1 and Orai1 in human embryonic kidney 293 cells (HEK293 cells) (Q96D31 whole entry): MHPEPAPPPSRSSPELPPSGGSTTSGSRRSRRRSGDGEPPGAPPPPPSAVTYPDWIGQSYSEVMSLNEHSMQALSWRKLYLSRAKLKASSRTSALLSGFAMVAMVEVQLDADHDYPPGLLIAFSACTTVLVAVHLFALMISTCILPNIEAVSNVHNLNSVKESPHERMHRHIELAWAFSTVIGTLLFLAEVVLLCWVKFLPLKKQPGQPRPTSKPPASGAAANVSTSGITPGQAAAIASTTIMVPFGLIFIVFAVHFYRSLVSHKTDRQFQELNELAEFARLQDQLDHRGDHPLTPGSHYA

NCCOB(c1ccccc1)c1ccccc1 [2-aminoethoxydiphenylborate]
block of store-dependent Ca2+ entry [1]: completely blocked

Cc1nnsc1C(=O)Nc1ccc(-n2nc(C(F)(F)F)cc2C(F)(F)F)cc1 [BTP-2]
inhibition of SOCE (Jurkat cells): inhibits
inhibition of proliferation (Jurkat cells): inhibits
inhibition of SOCE (colon cancer cells): inhibits
inhibition of proliferation (colon cancer cells): inhibits
